Legend:
Format in all cases: functional
[1] = tested on: CAKI-1; assay: Growth inhibition of human CAKI-1 cells assessed as cell growth at 1 uM incubated for 48 hrs by sulforhodamine B assay relative to control; details: read-out: Activity
[2] = tested on: SW-620; assay: Growth inhibition of human SW-620 cells assessed as cell growth at 1 uM incubated for 48 hrs by sulforhodamine B assay relative to control; details: read-out: Activity
[3] = tested on: HT-29; assay: Growth inhibition of human HT-29 cells incubated for 48 hrs by sulforhodamine B assay
[4] = tested on: HCT-116; assay: Growth inhibition of human HCT-116 cells assessed as cell growth at 0.1 uM incubated for 48 hrs by sulforhodamine B assay relative to control; details: read-out: Activity
[5] = tested on: UACC-257; assay: Growth inhibition of human UACC-257 cells assessed as cell growth at 100 uM incubated for 48 hrs by sulforhodamine B assay relative to control; details: read-out: Activity
[6] = tested on: MDA-MB-435; assay: Growth inhibition of human MDA-MB-435 cells assessed as cell growth at 100 uM incubated for 48 hrs by sulforhodamine B assay relative to control; details: read-out: Activity
[7] = tested on: SF-295; assay: Growth inhibition of human SF-295 cells assessed as cell growth at 100 uM incubated for 48 hrs by sulforhodamine B assay relative to control; details: read-out: Activity
[8] = tested on: MDA-MB-435; assay: Growth inhibition of human MDA-MB-435 cells assessed as cell growth at 0.01 uM incubated for 48 hrs by sulforhodamine B assay relative to control; details: read-out: Activity
[9] = tested on: BT-549; assay: Growth inhibition of human BT-549 cells assessed as cell growth at 100 uM incubated for 48 hrs by sulforhodamine B assay relative to control; details: read-out: Activity
[10] = tested on: SN12C; assay: Growth inhibition of human SN12C cells assessed as cell growth at 0.1 uM incubated for 48 hrs by sulforhodamine B assay relative to control; details: read-out: Activity
[11] = tested on: 786-0; assay: Growth inhibition of human 786-0 cells assessed as cell growth at 0.1 uM incubated for 48 hrs by sulforhodamine B assay relative to control; details: read-out: Activity
[12] = tested on: MDA-MB-468; assay: Growth inhibition of human MDA-MB-468 cells assessed as cell growth at 0.01 uM incubated for 48 hrs by sulforhodamine B assay relative to control; details: read-out: Activity
[13] = tested on: SNB-19; assay: Growth inhibition of human SNB-19 cells assessed as cell growth at 0.01 uM incubated for 48 hrs by sulforhodamine B assay relative to control; details: read-out: Activity
[14] = tested on: CCRF-CEM; assay: Growth inhibition of human CCRF-CEM cells assessed as cell growth at 0.01 uM incubated for 48 hrs by sulforhodamine B assay relative to control; details: read-out: Activity
[15] = tested on: U-251; assay: Growth inhibition of human U-251 cells assessed as cell growth at 0.01 uM incubated for 48 hrs by sulforhodamine B assay relative to control; details: read-out: Activity
[16] = tested on: Malme-3M; assay: Growth inhibition of human Malme-3M cells assessed as cell growth at 1 uM incubated for 48 hrs by sulforhodamine B assay relative to control; details: read-out: Activity
[17] = tested on: MDA-MB-468; assay: Growth inhibition of human MDA-MB-468 cells incubated for 48 hrs by sulforhodamine B assay
[18] = tested on: UACC-257; assay: Growth inhibition of human UACC-257 cells assessed as cell growth at 1 uM incubated for 48 hrs by sulforhodamine B assay relative to control; details: read-out: Activity
[19] = tested on: NCI-H522; assay: Growth inhibition of human NCI-H522 cells assessed as cell growth at 1 uM incubated for 48 hrs by sulforhodamine B assay relative to control; details: read-out: Activity
[20] = tested on: MDA-MB-231; assay: Growth inhibition of human MDA-MB-231 cells assessed as cell growth at 100 uM incubated for 48 hrs by sulforhodamine B assay relative to control; details: read-out: Activity
[21] = tested on: KM12; assay: Growth inhibition of human KM12 cells assessed as cell growth at 0.1 uM incubated for 48 hrs by sulforhodamine B assay relative to control; details: read-out: Activity
[22] = tested on: M14; assay: Growth inhibition of human M14 cells assessed as cell growth at 0.01 uM incubated for 48 hrs by sulforhodamine B assay relative to control; details: read-out: Activity
[23] = tested on: UO-31; assay: Growth inhibition of human UO-31 cells assessed as cell growth at 100 uM incubated for 48 hrs by sulforhodamine B assay relative to control; details: read-out: Activity
[24] = tested on: Hs-578T; assay: Growth inhibition of human Hs-578T cells assessed as cell growth at 0.1 uM incubated for 48 hrs by sulforhodamine B assay relative to control; details: read-out: Activity
[25] = tested on: NCI-H522; assay: Growth inhibition of human NCI-H522 cells assessed as cell growth at 0.1 uM incubated for 48 hrs by sulforhodamine B assay relative to control; details: read-out: Activity
[26] = tested on: SF-295; assay: Growth inhibition of human SF-295 cells incubated for 48 hrs by sulforhodamine B assay
[27] = tested on: UO-31; assay: Growth inhibition of human UO-31 cells assessed as cell growth at 0.1 uM incubated for 48 hrs by sulforhodamine B assay relative to control; details: read-out: Activity
[28] = tested on: MDA-MB-468; assay: Growth inhibition of human MDA-MB-468 cells assessed as cell growth at 1 uM incubated for 48 hrs by sulforhodamine B assay relative to control; details: read-out: Activity
[29] = tested on: NCI-H522; assay: Growth inhibition of human NCI-H522 cells incubated for 48 hrs by sulforhodamine B assay
[30] = tested on: SK-MEL-5; assay: Growth inhibition of human SK-MEL-5 cells assessed as cell growth at 0.1 uM incubated for 48 hrs by sulforhodamine B assay relative to control; details: read-out: Activity
[31] = tested on: LOX IMVI; assay: Growth inhibition of human LOX IMVI cells assessed as cell growth at 0.1 uM incubated for 48 hrs by sulforhodamine B assay relative to control; details: read-out: Activity
[32] = tested on: SNB-75; assay: Growth inhibition of human SNB-75 cells assessed as cell growth at 0.1 uM incubated for 48 hrs by sulforhodamine B assay relative to control; details: read-out: Activity
[33] = tested on: A498; assay: Growth inhibition of human A498 cells incubated for 48 hrs by sulforhodamine B assay
[34] = tested on: T47D; assay: Growth inhibition of human T47D cells incubated for 48 hrs by sulforhodamine B assay
[35] = tested on: SK-MEL-28; assay: Growth inhibition of human SK-MEL-28 cells incubated for 48 hrs by sulforhodamine B assay
[36] = read-out: LC50 (the source's name)
[37] = read-out: pLC50 (the source's name) (converted)

## CC(=O)Nc1cc(CCl)cc(NC(=O)c2ccc(C(=O)Nc3cccc(NC(=O)CCCN(C)C)c3)cc2)c1
[1]
  growth at 1 µM: 95%
[2]
  growth at 1 µM: 107%
[3]; read-out: GI50
  GI50: > 100 µM
[3]; [36]
  CC50: > 100 µM
[3]; read-out: TGI
  TGI: > 100 µM
[3]; read-out: pGI50 (converted)
  GI50: > 100 µM
[3]; [37]
  CC50: > 100 µM
[3]; read-out: pTGI
  TGI: > 100 µM
[4]
  growth at 0.1 µM: 107%
[5]
  growth at 100 µM: 105%
[6]
  growth at 100 µM: 94%
[7]
  growth at 100 µM: 38%
[8]
  growth at 0.01 µM: 96%
[9]
  growth at 100 µM: 94%
[10]
  growth at 0.1 µM: 104%
[11]
  growth at 0.1 µM: 104%
[12]
  growth at 0.01 µM: 90%
[13]
  growth at 0.01 µM: 106%
[14]
  growth at 0.01 µM: 107%
[15]
  growth at 0.01 µM: 98%
[16]
  growth at 1 µM: 97%
[17]; read-out: GI50
  GI50: > 100 µM
[17]; [36]
  CC50: > 100 µM
[17]; read-out: TGI
  TGI: > 100 µM
[17]; read-out: pGI50 (converted)
  GI50: > 100 µM
[17]; [37]
  CC50: > 100 µM
[17]; read-out: pTGI
  TGI: > 100 µM
[18]
  growth at 1 µM: 95%
[19]
  growth at 1 µM: 89%
[20]
  growth at 100 µM: 74%
[21]
  growth at 0.1 µM: 108%
[22]
  growth at 0.01 µM: 108%
[23]
  growth at 100 µM: 113%
[24]
  growth at 0.1 µM: 116%
[25]
  growth at 0.1 µM: 89%
[26]; read-out: GI50
  GI50: 37.8 µM
[26]; read-out: LC50
  LC50: > 100 µM
[26]; read-out: TGI
  TGI: > 100 µM
[26]; read-out: pGI50 (converted)
  GI50: 38 µM
[26]; read-out: pLC50 (converted)
  LC50: > 100 µM
[26]; read-out: pTGI
  TGI: > 100 µM
[27]
  growth at 0.1 µM: 97%
[28]
  growth at 1 µM: 86%
[29]; read-out: GI50
  GI50: > 100 µM
[29]; [36]
  CC50: > 100 µM
[29]; read-out: TGI
  TGI: > 100 µM
[29]; read-out: pGI50 (converted)
  GI50: > 100 µM
[29]; [37]
  CC50: > 100 µM
[29]; read-out: pTGI
  TGI: > 100 µM
[30]
  growth at 0.1 µM: 92%
[31]
  growth at 0.1 µM: 92%
[32]
  growth at 0.1 µM: 77%
[33]; read-out: GI50
  GI50: > 100 µM
[33]; read-out: LC50
  LC50 (concentration giving 50% net cell kill): > 100 µM
[33]; read-out: TGI
  TGI: > 100 µM
[33]; read-out: pGI50 (converted)
  GI50: > 100 µM
[33]; read-out: pLC50 (converted)
  LC50 (concentration giving 50% net cell kill): > 100 µM
[33]; read-out: pTGI
  TGI: > 100 µM
[34]; read-out: GI50
  GI50: > 100 µM
[34]; [36]
  CC50: > 100 µM
[34]; read-out: TGI
  TGI: > 100 µM
[34]; read-out: pGI50 (converted)
  GI50: > 100 µM
[34]; [37]
  CC50: > 100 µM
[34]; read-out: pTGI
  TGI: > 100 µM
[35]; read-out: GI50
  GI50: > 100 µM
[35]; read-out: LC50
  LC50 (50% lethal concentration): > 100 µM
[35]; read-out: TGI
  TGI: > 100 µM
[35]; read-out: pGI50 (converted)
  GI50: > 100 µM
[35]; read-out: pLC50 (converted)
  LC50 (50% lethal concentration): > 100 µM
[35]; read-out: pTGI
  TGI: > 100 µM

From ChEMBL document CHEMBL4715697, “Synthesis and biological activity of benzamide DNA minor groove binders” (2016)
